Data on 23 compounds can be found in patent publication US10781211B2, “Spirocycle compounds and methods of making and using same” (Lundbeck La Jolla Research Center, Inc., priority 2016, dated 2020).

The target of test [1] is FAAH (Mus musculus (Mouse), UniProt O08914). Briefly: Mouse brain proteomes from inhibitor treated mice (oral gavage, sacrifice 4 h after administration, ABPP analysis), FAAH. To be noted: 5 mg/kg oral gavage. It is filed as in vivo. On the procedure:
(§1) Preparation of Mouse Brain Proteomes from Inhibitor Treated Mice.
(§2) Inhibitors were administered to wild-type C57Bl/6J by oral gavage in a vehicle, e.g. PEG400/Ethanol/PBS (7/2/1). Each animal was sacrificed 4 h following administration and brain proteomes were prepared and analyzed according to previously established methods (See Niphakis, M. J., et al. (2011) ACS Chem. Neurosci. and Long, J. Z., et al. Nat. Chem. Biol. 5:37-44). Data from this assay is shown in Table 2 (% inhibition at 5 mg/kg).

Test [2] concerns the target ABHD6 (Mus musculus (Mouse), UniProt Q8R2Y0). Briefly: Mouse brain proteomes from inhibitor treated mice (oral gavage, sacrifice 4 h after administration, ABPP analysis), ABHD6. It is filed as in vivo. To be noted: 5 mg/kg oral gavage. On the procedure:
as §1, §2

FAAH, sequence (O08914 whole entry): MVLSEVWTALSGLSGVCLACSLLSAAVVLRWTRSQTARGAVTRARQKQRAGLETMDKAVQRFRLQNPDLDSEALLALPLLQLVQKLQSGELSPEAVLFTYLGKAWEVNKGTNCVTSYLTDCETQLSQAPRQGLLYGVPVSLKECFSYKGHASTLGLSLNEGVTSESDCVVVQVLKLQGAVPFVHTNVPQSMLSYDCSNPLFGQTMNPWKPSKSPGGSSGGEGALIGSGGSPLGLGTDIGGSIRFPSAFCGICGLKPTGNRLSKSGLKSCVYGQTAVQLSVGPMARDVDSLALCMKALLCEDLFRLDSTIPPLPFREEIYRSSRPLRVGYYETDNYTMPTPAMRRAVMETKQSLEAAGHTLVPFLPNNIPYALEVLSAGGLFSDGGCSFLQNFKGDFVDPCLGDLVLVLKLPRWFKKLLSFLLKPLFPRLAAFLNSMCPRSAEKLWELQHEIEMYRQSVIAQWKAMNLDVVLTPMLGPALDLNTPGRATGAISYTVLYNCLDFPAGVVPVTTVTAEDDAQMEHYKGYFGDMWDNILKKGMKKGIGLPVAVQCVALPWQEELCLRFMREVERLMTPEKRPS
ABHD6, sequence (Q8R2Y0 whole entry): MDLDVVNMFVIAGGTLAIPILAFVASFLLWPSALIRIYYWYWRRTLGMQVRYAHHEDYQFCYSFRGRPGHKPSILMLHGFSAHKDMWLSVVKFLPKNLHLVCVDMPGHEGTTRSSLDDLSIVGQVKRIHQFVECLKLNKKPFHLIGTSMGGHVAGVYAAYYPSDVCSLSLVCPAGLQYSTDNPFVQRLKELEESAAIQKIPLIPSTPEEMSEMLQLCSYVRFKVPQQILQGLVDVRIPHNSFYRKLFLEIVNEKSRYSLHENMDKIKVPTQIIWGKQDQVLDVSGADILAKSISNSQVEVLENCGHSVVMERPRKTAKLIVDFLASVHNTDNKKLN

Consider `O=C(OC(C(F)(F)F)C(F)(F)F)N1CCC2(CCN(Cc3ccc(Cl)cc3N3CCCC3)C2)CC1` [Example 17, 1,1,1,3,3,3-Hexafluoropropan-2-yl 2-(4-chloro-2-(pyrrolidin-1-yl)benzyl)-2,8-diazaspiro[4.5]decane-8-carboxylate], for which, in test [1], the “FAAH % Inh 5 mg/kg (mouse)” value is listed as “# (# is < 25%)”. Besides, in test [2], the “ABHD6 % Inh 5 mg/kg (mouse)” value is recorded as “# (# is < 25%)”.
In the case of `O=C(OC(C(F)(F)F)C(F)(F)F)N1CCC2(CCCN2Cc2ccc(Cl)cc2N2CCN(CCF)CC2)CC1` [Example 19, 1,1,1,3,3,3-Hexafluoropropan-2-yl 1-(4-chloro-2-(4-(2-fluoroethyl)piperazin-1-yl)benzyl)-1,8-diazaspiro[4.5]decane-8-carboxylate], the “FAAH % Inh 5 mg/kg (mouse)” value in test [1] is on record as “# (# is < 25%)”. Further, the “ABHD6 % Inh 5 mg/kg (mouse)” value in test [2] is given as “# (# is < 25%)”.
Turning to `O=C(OC(C(F)(F)F)C(F)(F)F)N1CCC2(CCCN2Cc2ccc(C(F)(F)F)cc2N2CCN(CCF)CC2)CC1` [Example 20, 1,1,1,3,3,3-Hexafluoropropan-2-yl 1-(2-(4-(2-fluoroethyl)piperazin-1-yl)-4-(trifluoromethyl)benzyl)-1,8-diazaspiro[4.5]decane-8-carboxylate], in test [1], the “FAAH % Inh 5 mg/kg (mouse)” value was “# (# is < 25%)”. Also, the “ABHD6 % Inh 5 mg/kg (mouse)” value in test [2] is reported as “# (# is < 25%)”.
For the compound `O=C(OC(C(F)(F)F)C(F)(F)F)N1CCC2(CCN(Cc3ccc(C(F)(F)F)cc3N3CCCCC3)C2)CC1` [Example 23, 1,1,1,3,3,3-Hexafluoropropan-2-yl 2-(2-(piperidin-1-yl)-4-(trifluoromethyl)benzyl)-2,8-diazaspiro[4.5]decane-8-carboxylate], the “FAAH % Inh 5 mg/kg (mouse)” value in test [1] is given as “# (# is < 25%)”. In test [2], the “ABHD6 % Inh 5 mg/kg (mouse)” value was “# (# is < 25%)”.
Regarding `O=C(OC(C(F)(F)F)C(F)(F)F)N1CCC2(CCN(Cc3ccc(Cl)cc3N3CC4COCC4C3)C2)CC1` (centres unmarked) [Example 25, 1,1,1,3,3,3-Hexafluoropropan-2-yl 2-(4-chloro-2-(tetrahydro-1H-furo[3,4-c]pyrrol-5(3H)-yl)benzyl)-2,8-diazaspiro[4.5]decane-8-carboxylate], in test [1], the “FAAH % Inh 5 mg/kg (mouse)” value is given as “# (# is < 25%)”. Moreover, in test [2], the “ABHD6 % Inh 5 mg/kg (mouse)” value was “# (# is < 25%)”.
For `O=C(OC(C(F)(F)F)C(F)(F)F)N1CCC2(CCN(Cc3ccc(C(F)(F)F)cc3N3CC4COCC4C3)C2)CC1` (centres unmarked) [Example 26, 1,1,1,3,3,3-Hexafluoropropan-2-yl 2-(2-(tetrahydro-1H-furo[3,4-c]pyrrol-5(3H)-yl)-4-(trifluoromethyl)benzyl)-2,8-diazaspiro[4.5]decane-8-carboxylate], in test [1], the “FAAH % Inh 5 mg/kg (mouse)” value is listed as “# (# is < 25%)”. In test [2], the “ABHD6 % Inh 5 mg/kg (mouse)” value was “# (# is < 25%)”.
Consider `CS(=O)(=O)N1CCN(c2cc(CN3CCCC34CCN(C(=O)OC(C(F)(F)F)C(F)(F)F)CC4)cc(C(F)(F)F)c2)CC1` [Example 43, 1,1,1,3,3,3-Hexafluoropropan-2-yl 1-(3-(4-(methylsulfonyl)piperazin-1-yl)-5-(trifluoromethyl)benzyl)-1,8-diazaspiro[4.5]decane-8-carboxylate], for which, in test [1], the “FAAH % Inh 5 mg/kg (mouse)” value is listed as “# (# is < 25%)”. The “ABHD6 % Inh 5 mg/kg (mouse)” value in test [2] is listed as “# (# is < 25%)”.
Turning to `O=C(OC(C(F)(F)F)C(F)(F)F)N1CCC2(CCCN2Cc2cc(N3CCC(F)CC3)cc(C(F)(F)F)c2)CC1` [Example 45, 1,1,1,3,3,3-Hexafluoropropan-2-yl 1-(3-(4-fluoropiperidin-1-yl)-5-(trifluoromethyl)benzyl)-1,8-diazaspiro[4.5]decane-8-carboxylate], the “FAAH % Inh 5 mg/kg (mouse)” value in test [1] is listed as “# (# is < 25%)”. Besides, the “ABHD6 % Inh 5 mg/kg (mouse)” value in test [2] is on record as “# (# is < 25%)”.
For `CC1(C)CC2(CCN(C(=O)OC(C(F)(F)F)C(F)(F)F)CC2)CN1Cc1ccc(Cl)cc1N1CCOCC1` [Example 50, 1,1,1,3,3,3-Hexafluoropropan-2-yl 2-(4-chloro-2-morpholinobenzyl)-3,3-dimethyl-2,8-diazaspiro[4.5]decane-8-carboxylate], in test [1], the “FAAH % Inh 5 mg/kg (mouse)” value was “# (# is < 25%)”. Besides, the “ABHD6 % Inh 5 mg/kg (mouse)” value in test [2] is “# (# is < 25%)”.
Take `CC1(C)CC2(CCN(C(=O)OC(C(F)(F)F)C(F)(F)F)CC2)CN1Cc1ccc(C(F)(F)F)cc1N1CCOCC1` [Example 51, 1,1,1,3,3,3-Hexafluoropropan-2-yl 3,3-dimethyl-2-(2-morpholino-4-(trifluoromethyl)benzyl)-2,8-diazaspiro[4.5]decane-8-carboxylate]: the “FAAH % Inh 5 mg/kg (mouse)” value in test [1] is on record as “# (# is < 25%)”. The “ABHD6 % Inh 5 mg/kg (mouse)” value in test [2] is recorded as “# (# is < 25%)”.
With `CC1(C)CC2(CCN(C(=O)OC(C(F)(F)F)C(F)(F)F)CC2)CN1Cc1cccc(Cl)c1N1CCOCC1` [Example 54, 1,1,1,3,3,3-Hexafluoropropan-2-yl 2-(3-chloro-2-morpholinobenzyl)-3,3-dimethyl-2,8-diazaspiro[4.5]decane-8-carboxylate], in test [1], the “FAAH % Inh 5 mg/kg (mouse)” value is “# (# is < 25%)”. In test [2], the “ABHD6 % Inh 5 mg/kg (mouse)” value is given as “# (# is < 25%)”.
Turning to `O=C(OC(C(F)(F)F)C(F)(F)F)N1CCC2(CCN(Cc3cccc(Cl)c3N3CCC(F)(F)CC3)C2)CC1` [Example 64, 1,1,1,3,3,3-Hexafluoropropan-2-yl 2-(3-chloro-2-(4,4-difluoropiperidin-1-yl)benzyl)-2,8-diazaspiro[4.5]decane-8-carboxylate], in test [1], the “FAAH % Inh 5 mg/kg (mouse)” value was “# (# is < 25%)”. In addition, the “ABHD6 % Inh 5 mg/kg (mouse)” value in test [2] is “# (# is < 25%)”.
Take `O=C(OC(C(F)(F)F)C(F)(F)F)N1CCC2(CCN(Cc3cccc(Cl)c3N3CCC(F)CC3)C2)CC1` [Example 65, 1,1,1,3,3,3-Hexafluoropropan-2-yl 2-(3-chloro-2-(4-fluoropiperidin-1-yl)benzyl)-2,8-diazaspiro[4.5]decane-8-carboxylate]: in test [1], the “FAAH % Inh 5 mg/kg (mouse)” value is listed as “# (# is < 25%)”.
On to `O=C(OC(C(F)(F)F)C(F)(F)F)N1CCC2(CCCN2Cc2ccc(C(F)(F)F)cc2N2CCCC2)CC1` [Example 66, 1,1,1,3,3,3-Hexafluoropropan-2-yl 1-(2-(pyrrolidin-1-yl)-4-(trifluoromethyl)benzyl)-1,8-diazaspiro[4.5]decane-8-carboxylate], for which the “FAAH % Inh 5 mg/kg (mouse)” value in test [1] is recorded as “# (# is < 25%)”. Also, the “ABHD6 % Inh 5 mg/kg (mouse)” value in test [2] is “# (# is < 25%)”.
`O=C(OC(C(F)(F)F)C(F)(F)F)N1CCC2(CCN(Cc3ccc(C(F)(F)F)cc3N3CCCC3)C2)CC1` [Example 72, 1,1,1,3,3,3-Hexafluoropropan-2-yl 2-(2-(pyrrolidin-1-yl)-4-(trifluoromethyl)benzyl)-2,8-diazaspiro[4.5]decane-8-carboxylate]: the “FAAH % Inh 5 mg/kg (mouse)” value in test [1] is “# (# is < 25%)”. In test [2], the “ABHD6 % Inh 5 mg/kg (mouse)” value is on record as “# (# is < 25%)”.
With `O=C(OC(C(F)(F)F)C(F)(F)F)N1CCC2(CCCN2Cc2ccc(C(F)(F)F)cc2N2CC3CCC(C2)O3)CC1` [Example 73, 1,1,1,3,3,3-Hexafluoropropan-2-yl 1-(2-(8-oxa-3-azabicyclo[3.2.1]octan-3-yl)-4-(trifluoromethyl)benzyl)-1,8-diazaspiro[4.5]decane-8-carboxylate], in test [1], the “FAAH % Inh 5 mg/kg (mouse)” value is recorded as “# (# is < 25%)”. For the same compound, in test [2], the “ABHD6 % Inh 5 mg/kg (mouse)” value is given as “# (# is < 25%)”.
As for `O=C(OC(C(F)(F)F)C(F)(F)F)N1CCC2(CCCN2Cc2ccc(Cl)cc2N2CCCCC2)CC1` [Example 74, 1,1,1,3,3,3-Hexafluoropropan-2-yl 1-(4-chloro-2-(piperidin-1-yl)benzyl)-1,8-diazaspiro[4.5]decane-8-carboxylate], in test [1], the “FAAH % Inh 5 mg/kg (mouse)” value is “# (# is < 25%)”. Further, in test [2], the “ABHD6 % Inh 5 mg/kg (mouse)” value is listed as “# (# is < 25%)”.
Consider `O=C(OC(C(F)(F)F)C(F)(F)F)N1CCC2(CCCN2Cc2ccc(C(F)(F)F)cc2N2CCCCC2)CC1` [Example 78, 1,1,1,3,3,3-Hexafluoropropan-2-yl 1-(2-(piperidin-1-yl)-4-(trifluoromethyl)benzyl)-1,8-diazaspiro[4.5]decane-8-carboxylate], for which the “FAAH % Inh 5 mg/kg (mouse)” value in test [1] is given as “# (# is < 25%)”. Also, in test [2], the “ABHD6 % Inh 5 mg/kg (mouse)” value is listed as “# (# is < 25%)”.
Consider `CCN1CCN(c2cc(C(F)(F)F)ccc2CN2CCCC23CCN(C(=O)OC(C(F)(F)F)C(F)(F)F)CC3)CC1` [Example 87, 1,1,1,3,3,3-Hexafluoropropan-2-yl 1-(2-(4-ethylpiperazin-1-yl)-4-(trifluoromethyl)benzyl)-1,8-diazaspiro[4.5]decane-8-carboxylate], for which the “FAAH % Inh 5 mg/kg (mouse)” value in test [1] is listed as “# (# is < 25%)”. In addition, the “ABHD6 % Inh 5 mg/kg (mouse)” value in test [2] is “# (# is < 25%)”.
In the case of `CC(=O)N1CCN(c2cc(C(F)(F)F)ccc2CN2CCCC23CCN(C(=O)OC(C(F)(F)F)C(F)(F)F)CC3)CC1` [Example 88, 1,1,1,3,3,3-Hexafluoropropan-2-yl 1-(2-(4-acetylpiperazin-1-yl)-4-(trifluoromethyl)benzyl)-1,8-diazaspiro[4.5]decane-8-carboxylate], the “FAAH % Inh 5 mg/kg (mouse)” value in test [1] is on record as “# (# is < 25%)”. Moreover, in test [2], the “ABHD6 % Inh 5 mg/kg (mouse)” value is recorded as “# (# is < 25%)”.
For the compound `O=C(OC(C(F)(F)F)C(F)(F)F)N1CCC2(CCCN2Cc2ccc(C(F)(F)F)cc2N2CCC(F)(F)CC2)CC1` [Example 90, 1,1,1,3,3,3-Hexafluoropropan-2-yl 1-(2-(4,4-difluoropiperidin-1-yl)-4-(trifluoromethyl)benzyl)-1,8-diazaspiro[4.5]decane-8-carboxylate], the “FAAH % Inh 5 mg/kg (mouse)” value in test [1] was “# (# is < 25%)”. For the same compound, in test [2], the “ABHD6 % Inh 5 mg/kg (mouse)” value is given as “# (# is < 25%)”.
As for `CC(=O)NC1CCN(c2cc(Cl)ccc2CN2CCCC23CCN(C(=O)OC(C(F)(F)F)C(F)(F)F)CC3)CC1` [Example 104, 1,1,1,3,3,3-Hexafluoropropan-2-yl 1-(2-(4-acetamidopiperidin-1-yl)-4-chlorobenzyl)-1,8-diazaspiro[4.5]decane-8-carboxylate], in test [1], the “FAAH % Inh 5 mg/kg (mouse)” value was “# (# is < 25%)”. Moreover, the “ABHD6 % Inh 5 mg/kg (mouse)” value in test [2] is “# (# is < 25%)”.
`CS(=O)(=O)C1CN(c2cc(C(F)(F)F)ccc2CN2CCCC23CCN(C(=O)OC(C(F)(F)F)C(F)(F)F)CC3)C1` [Example 268]: the “FAAH % Inh 5 mg/kg (mouse)” value in test [1] is recorded as “# (# is < 25%)”.
